From patent publication US7348453B2, “Labile linkage for compound delivery to a cell” (Mirus Bio Corporation, priority 2003, dated 2008)

Assays:
[1] = system: Hepa mouse hepatoma cells; assay: DNA transfection, luciferase expression (pCIluc/DW921 complexes with crosslinker); assay type: cell-based; conditions: pCIluc 10 μg/mL, DW921 100 μg/mL, 48 h, average of two wells
Procedure: To a solution of plasmid DNA pCIluc (10 μg/mL, 0.075 mM in phosphate, 2.6 μg/μL pCIluc; prepared according to Danko et al. 1997) in 0.5 mL of 150 mM NaCl and 5 mM TAPS pH 9 was added 100 μg/mL DW921. The complexes were then reacted with glutaraldehyde, periodate oxidized phenyl glucoside (another crosslinker containing a labile bond), or periodate oxidized salicylic galactoside at 1, 2, 4, 8, or 16 μg/mL. The complexes were then added (200 μL) to wells containing Hepa mouse hepatoma cells in Dulbecco's modified Eagle's Media containing 10% fetal bovine serum. The cells were allowed to incubate for 48 h. The cells were then harvested and assayed for luciferase expression as previously reported. The amount of transfection was reported in relative light units and is the average transfection for two separate wells of cells.

[2] = Measurement of acetal hydrolysis kinetics (absorbance vs time in buffered solutions); assay type: physicochemical; conditions: formaldehyde-derived vs acetaldehyde-derived acetal
Excerpt: To illustrate the rate of cleavage of several example ortho carboxy phenol derived acetals, we synthesized the molecules 1-3 (shown in FIG. 2) and measured the rates of acetal hydrolysis for each at pH 5.2-7.3. • Acetal 1. R′, R=alkyl; and R1, R2, R3, R4=hydrogen • Acetal 2. R′, R=alkyl; R1, R4=hydrogen; R2=carboxyl (carbon-containing group); R3=hydroxyl (heteroatom) • Acetal 3. R′=alkyl; R, R2, R3, R4=hydrogen; and R1=carboxyl (carbon-containing group)
To determine the rate of acetal hydrolysis, compounds 1-3 were added to buffered solutions (pH 7-8 with 5 mM HEPES, or pH 5-7 with 5 mM acetate) at various pH values and the absorbance of the solution was measured as a function of time (λ=302 nm for 1 and 2 and 310 nm for 3). The rate constant was determined by determining the slope of the line derived from plotting ln[1−((A∞−At)/(A28−Ao))] as a function of time t, where A28 is absorbance after >3 hours of hydrolysis, At is the absorbance at time t, and Ao is the initial absorbance. The half-life of the hydrolysis equals ln[2] divided by the rate constant.

SMILES | Relative Light Units (luciferase expression) ([1]; 2 μg/mL dialdehyde crosslinker) | Relative Light Units (luciferase expression) ([1]; 4 μg/mL dialdehyde crosslinker) | Relative Light Units (luciferase expression) ([1]; 8 μg/mL dialdehyde crosslinker) | rate of acetal hydrolysis relative to acetals derived from alkyl-substituted aldehydes (acetals 1 and 2) [2]
O=CCCCC=O [glutaraldehyde] | 620 Relative Light Units | 1,400 Relative Light Units | 590 Relative Light Units | –
CC(C)[C@@H]1CC[C@@H](C)C[C@H]1OCOc1c(C(=O)O)cccc1C(=O)O [Acetal 3] | – | – | – | hydrolyze more slowly
